pEC50: −log10 of the molar value.

As usually defined, the pEC50 is the negative decadic logarithm of the EC50, by convention in mol/L.

Sequence of recombinant IL4I1 (Q96RQ9 22-567): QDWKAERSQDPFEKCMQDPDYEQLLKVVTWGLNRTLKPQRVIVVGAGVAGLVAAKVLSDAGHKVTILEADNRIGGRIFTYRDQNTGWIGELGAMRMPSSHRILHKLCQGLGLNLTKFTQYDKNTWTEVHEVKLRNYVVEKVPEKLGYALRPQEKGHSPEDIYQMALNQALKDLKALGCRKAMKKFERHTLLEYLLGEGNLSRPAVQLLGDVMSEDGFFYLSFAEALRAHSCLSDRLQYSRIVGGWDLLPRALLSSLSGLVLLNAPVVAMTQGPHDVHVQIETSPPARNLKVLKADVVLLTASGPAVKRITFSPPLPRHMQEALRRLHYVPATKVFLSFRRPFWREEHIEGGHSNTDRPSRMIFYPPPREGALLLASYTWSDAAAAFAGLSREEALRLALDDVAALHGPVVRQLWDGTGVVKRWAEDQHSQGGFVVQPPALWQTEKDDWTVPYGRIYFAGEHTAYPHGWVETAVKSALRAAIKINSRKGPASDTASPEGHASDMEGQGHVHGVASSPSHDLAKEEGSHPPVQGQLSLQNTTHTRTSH

In the assay the target is recombinant IL4I1 (Homo sapiens (Human), UniProt Q96RQ9). The assay is described as follows: IL4I1 Enzymatic Assay (Amplex Red/HRP coupled H2O2 detection). It is filed as biochemical. Conditions: 1 nM IL4I1, 1 mM each Phe/Tyr/Trp, four-hour pre-incubation, 120 minutes reaction, top compound concentration of 10000 nM. The gist of the method:
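Recombinant IL4I1 (1 nM final) was pre-incubated 4 h at ambient temperature with compound in 50 mM Hepes pH 7.0, 0.005% Tween20. Reaction ran 120 min with 1 mM each Phe/Tyr/Trp, 0.05 mM Amplex Red and 1 U/mL HRP. Resorufin fluorescence (544/590 nm) was read, and EC50 fitted from ten-point 1:3 titrations (top 10000 nM) by four-parameter regression.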
In the case of `CC(O)C(C#N)c1ccc(Cc2cc3ccccc3[nH]c2=O)cc1` (single isomer, unassigned) [Example 102A, 3-hydroxy-2-(4-((2-oxo-1,2-dihydroquinolin-3-yl)methyl)phenyl)butanenitrile], the pEC50 was 8.28. Regarding `Cc1snnc1-c1nnc(Cc2cc3ccccc3[nH]c2=O)o1` [Example 17, 3-((5-(5-methyl-1,2,3-thiadiazol-4-yl)-1,3,4-oxadiazol-2-yl)methyl)quinolin-2(1H)-one], the pEC50 was 6.77. With `C[C@@](O)(c1ccc(Cc2cc3ccccc3[nH]c2=O)cc1)C(F)F` (stereo in doubt) [Example 90A, 3-(4-(1,1-difluoro-2-hydroxypropan-2-yl)benzyl)quinolin-2(1H)-one], the pEC50 is 8.02. Take `CC(O)C(C#N)c1ccc(Cc2cc3ccccc3[nH]c2=O)cc1` (single isomer, unassigned) [Example 102D, 3-hydroxy-2-(4-((2-oxo-1,2-dihydroquinolin-3-yl)methyl)phenyl)butanenitrile]: the pEC50 was 7.96. Regarding `CC(C)(O)c1ccc(Cc2cc3ccccc3[nH]c2=O)cc1` [Example 160, 3-(4-(2-Hydroxypropan-2-yl)benzyl)quinolin-2(1H)-one], the pEC50 was 8.20. Consider `CC(=O)NCc1ccc(Cc2cc3ccccc3[nH]c2=O)cc1` [Example 124, N-(4-((2-oxo-1,2-dihydroquinolin-3-yl)methyl)benzyl)acetamide], for which the pEC50 was 8.46. The figure for `COc1ccc(C#N)cc1Cc1nnc(Cc2cc3ccccc3[nH]c2=O)o1` [Example 35, 4-methoxy-3-((5-((2-oxo-1,2-dihydroquinolin-3-yl)methyl)-1,3,4-oxadiazol-2-yl)methyl)benzonitrile] is 7.33. The figure for `NS(=O)(=O)c1ccc(Cc2cc3ccccc3[nH]c2=O)cc1Cl` [Example 70, 2-chloro-4-((2-oxo-1,2-dihydroquinolin-3-yl)methyl)benzenesulfonamide] is 8.05; for `O=c1[nH]c2ccccc2cc1Cc1nnc(-c2cn3cccnc3n2)o1` [Example 12, 3-((5-(imidazo[1,2-a]pyrimidin-2-yl)-1,3,4-oxadiazol-2-yl)methyl)quinolin-2(1H)-one] it is 6.37; for `O=c1[nH]c2ccccc2cc1Cc1nnc(-c2ccn3ncnc3c2)o1` [Example 26, 3-((5-([1,2,4]triazolo[1,5-a]pyridin-7-yl)-1,3,4-oxadiazol-2-yl)methyl)quinolin-2(1H)-one] it is 6.50. With `CC(C)(C#N)c1ccc(Cc2cc3ccccc3[nH]c2=O)cc1` [Example 97, 2-methyl-2-(4-((2-oxo-1,2-dihydroquinolin-3-yl)methyl)phenyl)propanenitrile], the pEC50 was 8.85. Regarding `N#CC1(c2cccc(Cc3cc4cnccc4[nH]c3=O)c2)CC1` [Example 116, 1-(3-((2-oxo-1,2-dihydro-1,6-naphthyridin-3-yl)methyl)phenyl)cyclopropane-1-carbonitrile], the pEC50 is 8.77. The figure for `CCn1cc(Cc2cc3ccccc3[nH]c2=O)cn1` [Example 112, 3-((1-ethyl-1H-pyrazol-4-yl)methyl)quinolin-2(1H)-one] is 7.22. Regarding `Cc1cc(Cc2cc3ccccc3[nH]c2=O)ccc1CNS(C)(=O)=O` [Example 165, N-(2-methyl-4-((2-oxo-1,2-dihydroquinolin-3-yl)methyl)benzyl)methanesulfonamide], the pEC50 was 8.21.

`O=c1[nH]c2ccccc2cc1Cc1ccc(C(O)C(F)(F)F)cc1` (racemic) [Example 126, rac-3-(4-(2,2,2-trifluoro-1-hydroxyethyl)benzyl)quinolin-2(1H)-one]: the negative logarithm of the EC50 (pEC50) was 8.57. The value for `O=c1[nH]c2ccccc2cc1Cc1ccc2c(c1)S(=O)(=O)CC2` [Example 81, 3-((1,1-dioxido-2,3-dihydrobenzo[b]thiophen-6-yl)methyl)quinolin-2(1H)-one] was 8.62.

The values above are taken from patent US20240287022A1 (Merck Sharp & Dohme LLC, priority 2021, published 2024).
